Measurements published in patent US11103525B2, “Idoxuridine and its analogs as neuroprotectans for the treatment of parkinsonism” (priority 2017, dated 2021).

Legend:
Format in all cases: cell-based, mouse
[1] = test system: GPR37-tGFP; experiment: GPR37-tGFP translocation assay; details: 72 h
Experimental: FIG. 2. Schematic representation of the rationale and the basic steps of GPR37-translocation assay. A. GPR37 is prone to misfolding and aggregation, which, in metabolically-active cells, are followed by degradation and results in low levels of functional receptor in the plasma membrane. The primary targets of the screening assay are compounds that can directly or indirectly facilitate maturation and trafficking of GPR37 to the plasma membrane. B. N2a cells stably expressing GPR37-tGFP are seeded in poly-D-Lysine coated 384 well plates at density 5000 cells/well. 24 h later cells are treated with compounds, including positive and negative controls, and incubated for 72 h. Then cells are fixed with 4% PFA and additionally stained with Hoechst 33342 (nuclei) and HCS CellMask™ red (cell body) to enable segmentation of the plasma membrane. Acquisition of fluorescence images is done using ImageXpress high content screening system (Molecular Devices). Quantification of GPR37-tGFP levels in the plasma membrane is done using CellProfiler software. FIG. 3. Schematic representation of Image analysis pipeline and final outcome data. Segmentation of the plasma membrane is performed in five main steps: 1) identification of nuclei (primary objects) using nuclear stain, 2) determination of cell borders using primary objects as seeds and growing these objects in respect of tGFP and HCS CellMask™ fluorescence intensity (secondary objects), 3) shrinking and expending secondary objects, 4) subtraction of shrunken cells from expended cells which results in membrane segmentation (tertiary objects), 5) tGFP fluorescence intensity is calculated within tertiary objects. Z′ factor is a quality measure of an assay which describes how well separated positive and negative controls are. Assays having Z′ factors above 0.5 are considered good assays. N2a cells stably expressing GPR37-tGFP were seeded in 384 BDFalcon BioCoat Poly-D-Lysine coated plates at a density of 5000 cells/well, and 50 μL incubation volume of maintenance medium. Cells were incubated at 37° C., 5% CO2 using humidity chamber. 24 h later, the cells were treated with 10 μL of compounds of desired concentration, including positive (2 mM dibutyryl-cAMP+0.5 mM 4-phenylbutyrate) and negative controls (0.1% DMSO), and incubated for 72 h. Cells were fixed with 4% PFA by adding 20 μL of 16% PFA directly to cell medium, incubating for 20 min and washing with PBS-Tween20 (0.05%). Directly after fixation cells were stained for nuclei with Hoechst 33342 (0.01 mg/mL) and for cell bodies with HCS CellMask™ Red stain (Thermo Fisher Scientific Inc.) (0.001 mg/mL) by incubating with the dyes for 30 min in PBS-Tween20 (0.05%) followed by washing with PBS. All the additional steps, including cell seeding were performed using Multidrop Combi dispenser (Thermo Scientific) and washing steps were done by means of HydroSpeed™ plate washer (Tecan). The images were captured using ImageXpress Micro XLS Widefield High-Content Analysis System (Molecular Devices, LLC) in 3 fluorescent channels (ImageXpress filters are listed, followed by excitation/emission in nm): DAPI (387/447), FITC (482/536) and TexasRed (562/624). Binning 2 was applied during the acquisition and digital confocal option was used for FITC and TexasRed filters. Typically, 5 images were taken per well at magnification 20× and stored as 16 bit, gray scale tif files along with metadata in Oracle database, for further analysis. Quantification of GPR37-tGFP levels in the plasma membrane was done using CellProfiler™ software. CellProfiler™ is an open-source cell image analysis software available at www.cellprofiler.org. An image analysis pipeline used for membrane segmentation consisted of 5 main steps (FIG. 3): 1) segmentation of nuclei (primary objects); 2) segmentation of cell bodies (secondary objects); 3) shrinking and expending cell bodies; 4) subtraction of shrank cells from expanded cells (tertiary objects—membranes); 5) calculating tGFP fluorescence in the membranes. […]

[2] = test system: WT cells; experiment: Cytoprotection against Eeyarestatin (EeI), WT cells
Experimental: FIG. 9: Cytoprotection of Idoxuridine against Eel. Eeyarestatin (Eel) is a potent inhibitor of endoplasmic reticulum associated protein degradation (ERAD) pathway, specifically targeting p97. Eel-mediated reduction of cell viability is counteracted by idoxuridine in both GPR37-tGFP overexpressing cells (A) and WT (B) cells. Data represented as mean+SD. Analysis performed via one-way ANOVA with Neuman-Keuls post-test for both Figures. *** indicates p<0.001.
Eeyarestatin (EeI) is a potent inhibitor of endoplasmic reticulum associated protein degradation (ERAD) pathway, specifically targeting p97.

[3] = test system: WT cells; experiment: Cytoprotection against H2O2, WT cells; details: in-well H2O2 0.00025%
Text: FIG. 10: Cytoprotection of Idoxuridine against […]. H2O2 reduces cell viability by increasing oxidative stress. This effect was counteracted by idoxuridine in GPR37-tGFP overexpressing cells (A) and WT (B) cells. […] In-well H2O2 concentration used was 0.00025%. […]

- EC50 ([1]; dose response, read-out: concentration giving 50% activity of positive control (GPR37-tGFP level at the plasma membrane)): ~1 µM
SMILES: O=c1[nH]c(=O)n([C@H]2C[C@H](O)[C@@H](CO)O2)cc1I [Idoxuridine, 2′-deoxy-5-iodouridine]
- concentration up to which GPR37-tGFP level at the plasma membrane increases in a dose response manner ([1]; dose response): around 5 μM
- GPR37-tGFP level in the plasma membrane, activity of positive control ([1]; primary screen, 10 μM, positive control (dibutyryl-cAMP + 4-phenylbutyrate) = 100%): about 100%
- effect on EeI-mediated reduction of cell viability [2]: counteracted
- effect on H2O2-induced reduction of cell viability [3]: counteracted
